Consider 2 compounds from patent US4670440A (priority 1985, dated 1987).

Data set [1] concerns Pseudomonas aeruginosa and gram positive and gram negative bacteria. The following applies: Antimicrobial Agents and Chemotherapy 1980, 17, 103-108; cited from earlier work.
For data set [2] the following is noted: because of the low solubility; cited from earlier work.
In data set [3] the test system is Staphylococcus aureus. The data set is described as follows: Minimal inhibiting concentration (MIC), agar-diffusion technique, series diluting method. The following applies: norfloxacin dissolved in dimethyl-sulphoxide, THA salt in water. (In general: In agar diffusion tests the substance spreads into inoculated agar from a disc or well.)
The subject of data set [4] is Pseudomonas Aeruginosa. The description is as above. The following applies: norfloxacin dissolved in dimethyl-sulphoxide, THA salt in water.
A short description of data set [5]: Watersolubility (literature / general statement). The data set is classed as physicochemical. The following applies: water, new compound of the Formula I.
The subject of data set [6] is E. Coli. Kind of data set: Minimal inhibiting concentration (MIC), agar-diffusion technique, series diluting method. The following applies: in vitro; norfloxacin dissolved in dimethyl-sulphoxide, THA salt in water; listed as Norfloxacin-THA-salt. The data set is classed as cell-based.
A short description of data set [7]: Absorption by the organism / through the intestines. The following applies: compound according to the invention; no test data shown. It counts as in vivo.
[8] abbreviates: in vitro, listed as Norfloxacin-THA-salt.

Entries after “also recorded” stand apart in the source; their conditions may differ.

A word on the MIC: it is the least concentration at which growth counts as inhibited. With `CCn1cc(C(=O)O)c(=O)c2cc(F)c(N3CCNCC3)cc21` [Norfloxacin, 1-ethyl-4-oxo-6-fluoro-7-(1-piperazinyl)-1,4-dihydro-quinoline-3-carboxylic acid, reference compound], the “activity in the therapy of urethral infections” value in data set [1] is reported as “good activity”. The “material absorbed going through the intestines” value in data set [2] is reported as “about 40%”. Also, the MIC in data set [3] (Staphylococcus aureus, read-out: MIC value, in vitro) fell in the range of 0.25 to 0.5 µg/mL; in data set [4] (Pseudomonas aeruginosa, read-out: MIC value, in vitro), 0.5 to 0.75 µg/mL.

In general, solubility refers to how much of the substance goes into solution per volume. On to `CCn1cc(C(=O)O)c(=O)c2cc(F)c(N3CCNCC3)cc21` [Compound of the Formula I, N,N,N-trimethyl-2-hydroxyethyl-ammonium-[1-ethyl-6-fluoro-4-oxo-7-(1-piperazinyl)-1,4-dihydro-quinoline-3-carboxylate]], for which the solubility in data set [5] is > 1000 mg/mL. Further, the values for the MIC value in data set [3] (setting [8]), in data set [6] and in data set [4] (setting [8]) were 0.25 µg/mL, 0.05 to 0.25 µg/mL and 0.25 to 0.5 µg/mL, respectively. For the same compound, the “absorption (in words)” value in data set [7] is listed as “better absorption; also recorded: quick absorption; also recorded: excellent absorption”. Moreover, the biological utilization entry in data set [7] is reported as “good biological utilization”.
